# Values of other authors in patent publication US7718595B2, “Light duty liquid cleaning compositions and methods of manufacture and use thereof comprising organic acids” (priority 2008, dated 2010).
# How the values were obtained:
# [1] = list category
# [2] = not given; remark: listed apart in the source
Compound,EPA Inert List [1],pKa,solubility in water [2]
CCO [Ethanol],4B,–,–
CC(O)C(=O)O (centres unmarked) [Lactic acid],4B,about 3.8,–
CCCCCCCCCCCC(=O)NCCC[N+](C)(C)CC(=O)[O-] [Laurylamidopropyl Betaine],3,–,–
O=S(=O)([O-])[O-].[Mg+2] [Mg2SO4],4A,–,–
O=C([O-])CN(CCN(CC(=O)[O-])CC(=O)[O-])CC(=O)[O-].[Na+].[Na+].[Na+].[Na+] [Na4EDTA],4B,–,–
O=P(O)(O)OP(=O)(O)OP(=O)(O)O [Sodium tripolyphosphate],–,–,about 14 wt-%
sodium xylene sulfonate [SXS],3,–,–
